Patent publication US20240115682A1, “METHODS OF TREATING CANCER USING HETEROARYL-BIPHENYL AMIDE DERIVATIVES” (CHEMOCENTRYX, INC., priority 2020, published 2024)
Entries after “also recorded” stand apart in the source; their conditions may differ. Like-named read-outs stand apart in the source and are kept apart here.

Key:
PD-L1 [1] = molecular target: T1, PD-L1 (Homo sapiens (Human), UniProt Q9NZQ7); test: PD-L1 Internalization Assay (surface PD-L1 by flow cytometry); type: cell-based; conditions: 37° C.
Experimental: Internalization Assay: MC38-hPD-L1 cells (GenOway S.A., France) and RKO cells (ATCC) growing at 37° C. in 5% CO2 were detached, resuspended in cold FACS buffer (PBS 1× with 10% FBS and 0.1% azide) and added to 96-well assay plates (V-Bottom) (Axygen, Union City, CA) at a concentration of 10×10^4 cells/well. ChemoCentryx compounds or anti-human PD-L1 antibody (AZ Medi4736 analog) were added to the wells at different concentrations and incubated for 2 hours at 37° C. or 4° C. Cells were washed twice with iced cold FACS buffer and stained with recombinant rabbit monoclonal anti human PD-L1 antibody ([28-8] (PE) (ab209962), Abcam) or recombinant rabbit monoclonal IgG Isotype control ([EPR25A] (PE) (ab209478), Abcam) for 30 minutes on ice. Cells were washed twice with FACS buffer before performing FACS analysis. Data were analyzed using FlowJo software.
Target sequence in this assay (Q9NZQ7 19-290): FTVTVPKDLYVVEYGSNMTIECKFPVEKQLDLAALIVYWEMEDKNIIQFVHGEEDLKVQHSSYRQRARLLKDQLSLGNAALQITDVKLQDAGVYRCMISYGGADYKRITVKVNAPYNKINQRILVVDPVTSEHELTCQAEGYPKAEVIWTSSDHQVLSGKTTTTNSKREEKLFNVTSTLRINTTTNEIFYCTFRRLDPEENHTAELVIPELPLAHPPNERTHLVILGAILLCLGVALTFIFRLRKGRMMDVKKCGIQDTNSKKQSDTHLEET

PD-L1 [2] = molecular target: T1, PD-L1; test: PD-L1 occupancy on cells isolated from MC38-hPD-L1 tumors (flow cytometry); type: in vivo, mouse; conditions: cells from treated MC38-hPD-L1 tumors
Experimental: (§1) Cellular phenotyping of tumor infiltrates: Excised tumors were finely chopped with a blade and meshed through 200 um sieve. Cells were then filtered through a […] sieve. Cells were washed and resuspended in FACS buffer (PBS 1× with 10% FBS and 0.1% azide).
(§2) Antibodies for flow cytometry were obtained from BioLegend (San Diego, CA). Flow cytometer panel included CD45 in FITC, PD-L1 in PE, CD8 in APC, CD4 in APC-Cy7. Flow cytometry data were acquired with a FACSCanto II (BD Biosciences, San Jose, CA) cytometer and analyzed using FlowJO v10.2 (FlowJo, Ashland, OR)
To examine the extent Compound 2.001 occupys PD-L1 on tumor cells, we utilized another PD-L1 detection antibody to stain the cells isolated from these tumors.
Target sequence in this assay (Q9NZQ7 19-290): as above

[3] = molecular target: human PD-L1 / human PD-1 interaction (Homo sapiens (Human), UniProt Q9NZQ7); test: PD-1/PD-L1 binding ELISA
Sequence of human PD-L1 / human PD-1 interaction (Q9NZQ7 19-239): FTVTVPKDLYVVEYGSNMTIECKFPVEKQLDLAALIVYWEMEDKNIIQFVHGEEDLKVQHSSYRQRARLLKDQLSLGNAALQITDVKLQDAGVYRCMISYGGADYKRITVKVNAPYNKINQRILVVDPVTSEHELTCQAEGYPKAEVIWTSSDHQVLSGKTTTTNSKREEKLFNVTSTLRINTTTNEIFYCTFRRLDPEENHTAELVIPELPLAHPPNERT
Experimental: 96 Well plates were coated with 1 μg/mL of human PD-L1 (obtained from R&D) in PBS overnight at 4° C. The wells were then blocked with 2% BSA in PBS (W/V) with 0.05% TWEEN-20 for 1 hour at 37° C. The plates were washed 3 times with PBS/0.05% TWEEN-20 and the compounds were serial diluted (1:5) in dilution medium and added to the ELISA plates. Human PD-1 and biotin 0.3 μg/mL (ACRO Biosystems) were added and incubated for 1 hour at 37° C. then washed 3 times with PBS/0.05% TWEEN-20. A second block was performed with 2% BSA in PBS (W/V)/0.05% TWEEN-20 for 10 min at 37° C. and the plates were washed 3 times with PBS/0.05% TWEEN-20. Streptavidin-HRP was added for 1 hour at 37° C. then the plates were washed 3 times with PBS/0.05% TWEEN-20. TMB substrate was added and reacted for 20 min at 37° C. A stop solution (2 N aqueous H2SO4) was added. The absorbance was read at 450 nm using a micro-plate spectrophotometer. The results are shown in Table 1: IC50 values are provided as follows: from 1000 to 10,000 nM (+); from 10 up to 1000 nM (++); less than 10 nM (+++).
ELISA: This assay was performed substantially as described in Biological Example 1.

human T cells = test: Mixed Lymphocyte Reaction (MLR), IFNgamma release; type: cell-based; conditions: for EC50: Homo sapiens, T-cell, T cells from different donors, read-out: EC50, release of INFgamma from human T cells
Excerpt: PBMCs Isolation: Peripheral blood mononuclear cells (PBMCs) were isolated from buffy coat from LRS chambers (leukoreduction systems) from healthy donors by density gradient centrifugation using StemCell SepMate™-50 tubes ([…] Technologies, Vancouver, CA) containing Ficoll-Paque Plus (Sigma Aldrich Inc., St. Louis, MO).
Generation of monocyte derived dendritic cells: CD14^+ monocytes were isolated from PBMCs by magnetic separation using human CD14^+ MicroBeads (MACS Miltenyi Biotech, Bergisch Gladbach, Germany) and an autoMACS® Pro Separator. Isolated monocytes were plated at a concentration of 1×10^6 cells/ml and differentiated to dendritic cells by adding GM-CSF (100 ng/ml) and IL-4 (50 ng/ml) for 6 days. Fresh media with cytokine supplement were added on day 0 and day 2. Mature dendritic cells were induced on day 6 by addition of IL-6 (2000 IU/ml), IL-1B (400 IU/ml) (Peprotech, Inc. Rocky Hill, NJ), TNFalpha (2000 IU/ml) and PGE2 (2 ug/ml) (Sigma Aldrich, Inc.) and cultured for 24 hours.
Preparation of human effector cells: CD4^+ T-Cells were isolated from PBMCs by magnetic separation using human CD4^+ MicroBeads (MACS Miltenyi Biotech) and an autoMACS® Pro Separator.
Mixed Lymphocyte Reaction (MLR): DC and CD4^+T-Cells from unmatched donors were cultured together in a ratio of 1:10 for 5 days in 96 well-flat bottom plates (Thermo Scientific). Test compounds were added as indicated at starting concentration of 1 μM with 1:4 dilutions with DMSO. PD-L1 antibody (AZ Medi4736 analog) and isotype control (Human IgG1, Kappa Isotype Control) (CrownBio, Beijing) were used as positive and negative control respectively. Supernatants were harvested after 5 days of incubation and detection of human IFNg was performed by ELISA using Human IFN-gamma DuoSet ELISA (R&D Systems, Minneapolis) as per manufacturer's instructions.

PD-L1 [4] = molecular target: T1, PD-L1; test: PathHunter PD-L1 Dimerization Assay in U2OS cells; type: cell-based
Experimental: Dimerization Assay PD-L1 protein dimerization was assessed in vitro by chemiluminescent detection using PathHunter® Dimerization assay (DiscoverX, Fremont, CA). The Assay was performed following vendor's protocol. 2×10^4 U2OS cells were plated in 96-well white bottom TC treated plates (Costar, San Jose, CA) in a final volume of 100 ul. ChemoCentryx compounds or anti-human PD-L1 antibody (AZ Medi4736 analog, CrownBio, Beijing) were added to experimental cells at different concentrations and incubated for 16 hours at 37° C. in 5% CO2. 110 ul of PathHunter Flash detection reagent (DiscoverX) was added to each well and incubated for 1 hour at room temperature in the dark. Chemiluminescent signal was measured on a FlexStation 3 plate reader (Molecular Devices, San Jose, CA) at a speed of 100 ms/well.
Target sequence in this assay (Q9NZQ7 19-290): as the sequence (Q9NZQ7 19-290) above
Target sequence in this assay (Q9NZQ7 19-290): as above

PD-1/PD-L1 interaction = test: PD-1/PD-L1 Blockade Cell-based Assay (NFAT luciferase reporter, CHO PD-L1 + Jurkat PD-1); conditions: Homo sapiens; CHO PD-L1 / Jurkat PD-1 co-culture; read-out: average EC50, NFAT promoter-driven luciferase expression
[5] = tested on: tumor infiltrating CD8+ and CD4+ T cells; test: Cellular phenotyping of tumor infiltrates in MC38-hPD-L1 tumor model; type: in vivo, mouse; conditions: MC38-hPD-L1 tumors
Experimental: as §1, §2

MC38-hPD-L1 tumor = MC38-hPD-L1 tumor model in C57BL/6 mice; type: in vivo, mouse; conditions: for animals that achieved complete regression: 10 mice in each group, compounds 30 mg/kg orally b.i.d., antibody i.p. twice a week
Experimental: Generation and culture of MC38-hPD-L1 cells: The compounds are only known to cross-react with human PD-L1, therefore a syngeneic tumor model with […] MC-38 colon tumor cells expressing human PD-L1 (MC38-hPD-L1 tumor model) was used. The MC38-hPD-L1 cells were generated by GenOway. Endogenous mouse PD-L1 was first knocked out in MC38 cells using CRISPR technology, then human PDL1 was stably transfected in these mouse PD-L1 Knock-out MC38 cells. The MC38-hPD-L1 cells were cultured under standard conditions for MC38 cells (DMEM with 10% fetal bovine serum and Penicillin/Streptomycin) with G418 for maintaining transgene expression. 2 days prior to inoculation of these cells to mice, cells were trysinized and seeded without antibiotics.
(§3) In Vivo Studies: 8-week-old, female C57BL/6 mice were injected s.c. with 5×10^5 MC38-hPD-L1 cells in the right flank. 9 days after tumor inoculation mice were randomly assigned to treatment groups based on tumor size. Only mice that developed measurable tumors were enrolled in the studies. Anti-PD-L1 (Durvalumab) or isotype control was given i.p. twice a week at 100 ug per mouse per dose for 2 weeks. Compound 2.001 and Compound 2.002 suspended in 1% HPMC was dosed p.o. daily at indicated doses, dosing volume 100 μl per mouse. The vehicle, 1% HPMC, was dosed at the same volume with the same frequency for control animals.
Tumor volume was measured three times per week using a digital caliper and calculated as (width^2*length/2). Mice were sacrificed when tumor volumes reached 2,000 mm^3 in accordance with IACUC guidelines.
Tumor width (W) and length (L) were measured with calipers 3 times a week and the tumor volume was calculated using the formula V=(W (2)×L)/2. When tumors reach 2000 mm^3 mice were sacrificed and tumor excised for further analysis.

A375-eGFP cells = test: In Vitro Immunotherapy Potency Assay (PBMC-mediated tumor cell killing); type: cell-based; conditions: in the presence of pre-stimulated primary human PBMCs
Experimental: In Vitro Immunotherapy Potency Assay: A375-eGFP-Puro Cells (ATCC) were grown in complete medium (DMEM+10% FBS+P/S 1×) containing lug/ml of puromycin. Human peripheral blood mononuclear cells (hPBMCs) were isolated from buffy coat from LRS chambers (leukoreduction systems) from healthy donors by density gradient centrifugation using StemCell SepMate™-50 tubes ([…] Technologies, Vancouver, CA) containing Ficoll-Paque Plus (Sigma Aldrich Inc., St. Louis, MO). […] Cells were washed twice and re-suspended into regular growth media. 3×10^4 A375-eGFP-Puro cells were seeded in 96-well clear bottom black TC treated plates in a final volume of 100 ul (Corning). Test compounds or anti-human PD-L1 antibody (AZ Medi4736 analog, CrownBio, Beijing) were added to the wells at different concentrations. SEB stimulated hPBMCs were added to the wells at a ratio of E:T (Effector cell: Target Cell) of […]. Mixed cells were incubated for 96 to 120 hours at 37° C. in 5% CO2. Medium was carefully aspired and 100 μl of PBS 1× was added to each well. Fluorescence from A375-eGFP cells was detected using FlexStation 3 plate reader.

[6] = Plasma compound concentration in MC38-hPD-L1 tumor model; type: in vivo, mouse; conditions: trough after 3 days of dosing, oral
Experimental: as §3

[7] = PD-1/PD-L1 ELISA, class symbols, read-out: ELISA IC50
[8] = average from multiple assays, read-out: average IC50, inhibition of direct interaction of PD-L1 to PD-1

| Compound | surface PD-L1 levels (PD-L1 [1]) | PD-L1 occupancy on tumor cells (PD-L1 [2]) | IC50 [3, 7] | IC50 [3, 8] | release of INFgamma from human T cells (human T cells) | EC50 (human T cells) | PD-L1 dimerization signal (PD-L1 [4]) | EC50 (PD-1/PD-L1 interaction) | tumor infiltrating CD8+ and CD4+ T cells [5] | animals that achieved complete regression (MC38-hPD-L1 tumor) | killing of GFP labeled human cancer cell line A375 (A375-eGFP cells) | plasma compound concentrations [6] | mice with complete eradication of the tumors (MC38-hPD-L1 tumor; 30 mg/kg (b.i.d.), orally) | tumor growth (MC38-hPD-L1 tumor; dosed orally, several doses) | PD-L1 dimerization signal (PD-L1 [4]; listed as anti-PD-L1 antibody) |
| --- | --- | --- | --- | --- | --- | --- | --- | --- | --- | --- | --- | --- | --- | --- | --- |
| COc1nc(-c2cccc(-c3cccc(NC(=O)c4cn(C)c(=O)n(C)c4=O)c3C)c2Cl)ccc1CNC[C@@H]1CCC(=O)N1 [Compound 2.001] | profoundly reduces surface PD-L1 levels; also recorded: lower the surface PD-L1 levels | near complete PD-L1 occupancy | < 10 nM | 0.3 nM | dose dependently increase | < 100 nM | strongly induced the dimerization signal; also recorded: induce PD-L1 dimerization | 52 nM | increased | 4 animals | promote killing | – | – | – | – |
| COc1nc(-c2cccc(-c3cccc(NC(=O)c4cn(C)c(=O)n(C)c4=O)c3Cl)c2Cl)ccc1CNC[C@@H]1CCC(=O)N1 [Compound 2.002] | profoundly reduces surface PD-L1 levels; also recorded: lower the surface PD-L1 levels | – | < 10 nM | 0.4 nM | dose dependently increase | < 100 nM | strongly induced the dimerization signal; also recorded: induce PD-L1 dimerization | 46 nM | – | – | promote killing | dose-dependency | Eight of the ten | dose dependently suppresses tumor growth; also recorded: tumor growth suppression in a dose-dependent manner | – |
| COc1nc(-c2cccc(-c3cccc(NC(=O)c4cn(C)c(=O)n(C)c4=O)c3C)c2Cl)ccc1CN[C@@H]1CCOC[C@@H]1O [Compound 2.003] | – | – | < 10 nM | – | – | – | – | – | – | – | – | – | – | – | – |
| Durvalumab [reference compound] | no effect | – | – | – | – | – | – | – | – | 6 animals | – | – | – | – | do not induce such signal |
